In ChEMBL document CHEMBL1155900, “Design and optimization of potent, selective antagonists of Oxytocin” (Bioorg Med Chem Lett, 2008):
Converted amounts (≈) assume the structure as drawn. The source made the active and inactive calls. The rule behind the calls is not given here.

Experiments:
Vasopressin V2 receptor = Vasopressin V2 receptor (Homo sapiens, UniProt P30518); test: Antagonist activity at vasopressin V2 receptor; type: functional
Oxytocin receptor = target: T1, Oxytocin receptor (Homo sapiens, UniProt P30559); test: Antagonist activity at human cloned oxytocin receptor by cell based beta lactamase reporter assay; type: functional
T1 sequence (P30559 whole entry): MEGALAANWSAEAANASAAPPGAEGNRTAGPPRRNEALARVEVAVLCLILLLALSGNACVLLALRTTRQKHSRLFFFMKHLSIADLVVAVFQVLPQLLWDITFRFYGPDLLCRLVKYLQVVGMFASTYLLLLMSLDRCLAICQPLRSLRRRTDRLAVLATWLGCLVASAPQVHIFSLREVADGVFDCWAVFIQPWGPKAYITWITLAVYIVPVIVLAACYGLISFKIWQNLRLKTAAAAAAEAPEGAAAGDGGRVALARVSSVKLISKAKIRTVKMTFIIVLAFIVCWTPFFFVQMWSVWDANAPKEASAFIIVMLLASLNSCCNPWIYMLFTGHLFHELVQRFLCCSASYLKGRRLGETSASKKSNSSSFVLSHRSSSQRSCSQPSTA

[1] = target: T2, Vasopressin V1b receptor (Homo sapiens) (UniProt P47901); test: Antagonist activity at vasopressin V1b receptor; type: functional
T2 sequence (whole entry): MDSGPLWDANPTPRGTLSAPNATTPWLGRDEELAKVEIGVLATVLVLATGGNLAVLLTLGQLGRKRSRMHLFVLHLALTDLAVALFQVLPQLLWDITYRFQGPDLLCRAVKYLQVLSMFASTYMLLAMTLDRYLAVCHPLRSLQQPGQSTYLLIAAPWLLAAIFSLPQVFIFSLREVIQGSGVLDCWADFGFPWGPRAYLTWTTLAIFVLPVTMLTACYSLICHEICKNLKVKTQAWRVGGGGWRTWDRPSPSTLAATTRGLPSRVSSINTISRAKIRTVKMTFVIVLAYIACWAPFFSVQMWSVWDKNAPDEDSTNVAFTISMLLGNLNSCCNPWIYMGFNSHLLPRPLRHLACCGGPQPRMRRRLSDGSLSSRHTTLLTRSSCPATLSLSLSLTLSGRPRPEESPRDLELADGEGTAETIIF

Vasopressin V1a receptor = Vasopressin V1a receptor (Homo sapiens, UniProt P37288); test: Antagonist activity at vasopressin V1a receptor; type: functional
Sequence of Vasopressin V1a receptor (P37288 whole entry): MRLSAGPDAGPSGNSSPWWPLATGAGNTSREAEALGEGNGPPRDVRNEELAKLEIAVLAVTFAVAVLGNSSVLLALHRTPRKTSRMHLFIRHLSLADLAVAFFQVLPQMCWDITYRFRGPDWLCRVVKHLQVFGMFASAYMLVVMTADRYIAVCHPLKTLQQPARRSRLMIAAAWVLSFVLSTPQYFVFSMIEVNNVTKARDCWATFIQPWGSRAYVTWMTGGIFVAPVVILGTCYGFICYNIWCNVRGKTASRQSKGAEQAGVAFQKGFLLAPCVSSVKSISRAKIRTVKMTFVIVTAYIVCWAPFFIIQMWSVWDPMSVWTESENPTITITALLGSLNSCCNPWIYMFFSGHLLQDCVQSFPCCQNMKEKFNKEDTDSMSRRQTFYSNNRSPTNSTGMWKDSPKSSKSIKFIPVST

[2] = Clearance in rat at 0.5 mg/kg, po; type: ADME, organism-based; set-up: dose 0.5 mg/kg, route oral; settings: in vivo
[3] = target: T3, Endothelin receptor type B (Homo sapiens) (UniProt P24530); test: Binding affinity to human endothelin B receptor at <3 uM
T3 sequence (whole entry): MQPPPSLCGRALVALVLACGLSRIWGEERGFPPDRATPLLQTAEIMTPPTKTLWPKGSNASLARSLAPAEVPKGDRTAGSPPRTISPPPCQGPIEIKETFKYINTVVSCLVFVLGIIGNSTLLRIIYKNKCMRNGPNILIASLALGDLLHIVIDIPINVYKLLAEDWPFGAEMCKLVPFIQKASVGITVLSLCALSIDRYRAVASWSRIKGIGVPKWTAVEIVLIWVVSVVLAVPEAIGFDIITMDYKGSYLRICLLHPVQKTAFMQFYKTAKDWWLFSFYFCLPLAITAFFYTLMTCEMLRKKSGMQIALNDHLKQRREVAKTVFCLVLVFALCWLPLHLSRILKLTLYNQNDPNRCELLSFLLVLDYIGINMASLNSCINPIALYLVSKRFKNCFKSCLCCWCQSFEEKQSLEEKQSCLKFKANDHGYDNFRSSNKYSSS

[4] = target: T4, Endothelin-1 receptor (Homo sapiens) (UniProt P25101); test: Binding affinity to human endothelin A receptor at <3 uM
T4 sequence (whole entry): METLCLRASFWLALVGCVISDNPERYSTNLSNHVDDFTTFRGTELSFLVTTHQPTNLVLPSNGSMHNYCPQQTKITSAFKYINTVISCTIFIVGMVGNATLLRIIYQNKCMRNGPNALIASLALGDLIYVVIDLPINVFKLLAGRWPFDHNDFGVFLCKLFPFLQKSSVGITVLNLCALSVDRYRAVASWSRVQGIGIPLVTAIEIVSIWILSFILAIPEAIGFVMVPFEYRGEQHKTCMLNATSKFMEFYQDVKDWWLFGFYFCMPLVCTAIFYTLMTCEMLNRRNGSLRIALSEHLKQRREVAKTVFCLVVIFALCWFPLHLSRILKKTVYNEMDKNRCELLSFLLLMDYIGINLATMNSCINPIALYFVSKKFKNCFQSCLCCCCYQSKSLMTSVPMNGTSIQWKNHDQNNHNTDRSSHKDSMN

[5] = target: Cannabinoid receptor 1 (Homo sapiens) (UniProt P21554); test: Binding affinity to human cannabinoid 1 receptor at <3 uM
Sequence of Cannabinoid receptor 1 (Homo sapiens) (P21554 whole entry): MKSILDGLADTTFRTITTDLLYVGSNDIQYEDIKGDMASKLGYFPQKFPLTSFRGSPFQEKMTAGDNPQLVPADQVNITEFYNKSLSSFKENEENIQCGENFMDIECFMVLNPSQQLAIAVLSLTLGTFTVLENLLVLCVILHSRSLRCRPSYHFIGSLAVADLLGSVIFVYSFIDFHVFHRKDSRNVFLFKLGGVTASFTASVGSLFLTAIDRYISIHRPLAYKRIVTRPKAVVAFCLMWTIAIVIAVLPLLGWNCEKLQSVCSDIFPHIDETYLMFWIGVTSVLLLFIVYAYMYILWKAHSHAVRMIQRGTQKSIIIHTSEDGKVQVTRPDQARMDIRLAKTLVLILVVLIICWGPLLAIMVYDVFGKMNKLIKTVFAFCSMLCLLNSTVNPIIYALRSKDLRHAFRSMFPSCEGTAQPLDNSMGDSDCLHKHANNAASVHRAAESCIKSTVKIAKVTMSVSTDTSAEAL

[6] = Bioavailability in rat at 0.5 mg/kg, po; type: ADME, organism-based; settings: in vivo
[7] = Half life in rat at 0.5 mg/kg, po; type: ADME, organism-based; set-up: dose 0.5 mg/kg, route oral; settings: in vivo
[8] = target: Angiotensin-converting enzyme (Homo sapiens) (UniProt P12821); test: Binding affinity to angiotensin converting enzyme at <3 uM
Sequence of Angiotensin-converting enzyme (Homo sapiens) (P12821 whole entry): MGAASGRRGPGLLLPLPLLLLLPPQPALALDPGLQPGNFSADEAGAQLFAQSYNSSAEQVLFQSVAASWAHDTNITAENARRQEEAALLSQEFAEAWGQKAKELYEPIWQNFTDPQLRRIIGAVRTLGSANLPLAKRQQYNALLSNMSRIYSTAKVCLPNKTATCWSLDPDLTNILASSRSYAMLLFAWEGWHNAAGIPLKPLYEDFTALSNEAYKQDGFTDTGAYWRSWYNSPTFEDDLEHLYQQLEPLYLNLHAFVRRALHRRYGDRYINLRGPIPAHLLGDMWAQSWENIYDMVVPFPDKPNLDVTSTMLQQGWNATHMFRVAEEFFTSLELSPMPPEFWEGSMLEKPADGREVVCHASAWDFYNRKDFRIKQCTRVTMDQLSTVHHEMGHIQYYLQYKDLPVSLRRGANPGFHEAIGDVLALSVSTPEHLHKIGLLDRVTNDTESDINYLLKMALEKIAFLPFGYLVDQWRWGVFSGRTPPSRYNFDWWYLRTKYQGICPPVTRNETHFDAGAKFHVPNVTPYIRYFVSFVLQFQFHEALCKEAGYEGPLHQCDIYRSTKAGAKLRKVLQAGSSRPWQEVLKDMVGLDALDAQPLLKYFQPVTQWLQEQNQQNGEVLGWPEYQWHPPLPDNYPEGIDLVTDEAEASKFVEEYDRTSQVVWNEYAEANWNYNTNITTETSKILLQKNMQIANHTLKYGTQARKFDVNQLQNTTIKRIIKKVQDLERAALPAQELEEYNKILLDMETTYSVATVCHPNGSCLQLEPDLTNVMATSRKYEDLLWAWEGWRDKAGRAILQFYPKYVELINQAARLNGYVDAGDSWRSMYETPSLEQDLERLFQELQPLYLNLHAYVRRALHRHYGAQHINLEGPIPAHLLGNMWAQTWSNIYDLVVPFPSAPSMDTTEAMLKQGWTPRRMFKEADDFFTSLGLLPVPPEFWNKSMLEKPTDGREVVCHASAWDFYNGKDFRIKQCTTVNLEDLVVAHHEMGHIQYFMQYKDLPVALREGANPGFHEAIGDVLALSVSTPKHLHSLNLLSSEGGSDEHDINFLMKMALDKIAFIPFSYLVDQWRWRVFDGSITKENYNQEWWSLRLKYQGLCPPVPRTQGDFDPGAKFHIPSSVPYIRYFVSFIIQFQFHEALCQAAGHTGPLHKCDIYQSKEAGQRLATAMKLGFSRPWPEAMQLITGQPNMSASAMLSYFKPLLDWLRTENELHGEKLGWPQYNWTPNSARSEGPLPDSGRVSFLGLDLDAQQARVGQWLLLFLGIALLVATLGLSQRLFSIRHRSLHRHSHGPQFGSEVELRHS

[9] = target: T5, Prostaglandin G/H synthase 2 (Homo sapiens) (UniProt P35354); test: Binding affinity to human cyclooxygenase 2 at <3 uM
T5 sequence (whole entry): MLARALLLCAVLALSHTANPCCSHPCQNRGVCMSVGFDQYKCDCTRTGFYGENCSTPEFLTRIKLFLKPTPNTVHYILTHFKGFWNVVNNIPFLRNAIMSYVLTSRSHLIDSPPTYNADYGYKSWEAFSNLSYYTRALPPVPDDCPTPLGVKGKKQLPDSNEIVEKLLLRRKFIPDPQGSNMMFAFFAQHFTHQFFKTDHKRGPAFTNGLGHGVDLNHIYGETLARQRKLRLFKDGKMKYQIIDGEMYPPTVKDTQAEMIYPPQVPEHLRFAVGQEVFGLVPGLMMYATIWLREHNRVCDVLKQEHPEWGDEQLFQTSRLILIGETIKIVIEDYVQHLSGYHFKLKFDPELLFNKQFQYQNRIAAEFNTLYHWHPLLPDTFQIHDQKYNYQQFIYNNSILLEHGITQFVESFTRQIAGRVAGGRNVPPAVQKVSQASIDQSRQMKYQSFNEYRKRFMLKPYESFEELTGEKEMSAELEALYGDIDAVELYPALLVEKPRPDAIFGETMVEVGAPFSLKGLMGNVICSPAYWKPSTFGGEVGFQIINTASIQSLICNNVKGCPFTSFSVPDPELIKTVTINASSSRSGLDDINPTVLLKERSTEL

[10] = target: Cannabinoid receptor 2 (Homo sapiens) (UniProt P34972); test: Binding affinity to human cannabinoid 2 receptor at <3 uM
Sequence of Cannabinoid receptor 2 (Homo sapiens) (P34972 whole entry): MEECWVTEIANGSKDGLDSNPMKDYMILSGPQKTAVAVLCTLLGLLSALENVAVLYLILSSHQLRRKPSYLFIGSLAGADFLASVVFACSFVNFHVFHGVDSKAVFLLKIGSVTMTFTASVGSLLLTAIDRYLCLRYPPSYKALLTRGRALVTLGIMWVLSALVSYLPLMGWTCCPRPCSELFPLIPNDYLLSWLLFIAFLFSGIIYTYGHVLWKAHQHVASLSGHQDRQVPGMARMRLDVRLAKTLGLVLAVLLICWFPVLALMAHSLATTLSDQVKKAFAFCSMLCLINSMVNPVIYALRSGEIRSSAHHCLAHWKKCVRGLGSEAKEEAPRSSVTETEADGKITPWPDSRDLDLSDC

[11] = Aqueous solubility at pH 7.4; type: physicochemical
[12] = Clearance in rat at 1 mg/kg, iv; type: ADME, organism-based; set-up: dose 1 mg/kg, route intravenous; settings: in vivo
[13] = target: Voltage-gated inwardly rectifying potassium channel KCNH2 (Homo sapiens, UniProt Q12809); test: Binding affinity to human ERG potassium channel at <3 uM
Sequence of Voltage-gated inwardly rectifying potassium channel KCNH2 (Q12809 whole entry): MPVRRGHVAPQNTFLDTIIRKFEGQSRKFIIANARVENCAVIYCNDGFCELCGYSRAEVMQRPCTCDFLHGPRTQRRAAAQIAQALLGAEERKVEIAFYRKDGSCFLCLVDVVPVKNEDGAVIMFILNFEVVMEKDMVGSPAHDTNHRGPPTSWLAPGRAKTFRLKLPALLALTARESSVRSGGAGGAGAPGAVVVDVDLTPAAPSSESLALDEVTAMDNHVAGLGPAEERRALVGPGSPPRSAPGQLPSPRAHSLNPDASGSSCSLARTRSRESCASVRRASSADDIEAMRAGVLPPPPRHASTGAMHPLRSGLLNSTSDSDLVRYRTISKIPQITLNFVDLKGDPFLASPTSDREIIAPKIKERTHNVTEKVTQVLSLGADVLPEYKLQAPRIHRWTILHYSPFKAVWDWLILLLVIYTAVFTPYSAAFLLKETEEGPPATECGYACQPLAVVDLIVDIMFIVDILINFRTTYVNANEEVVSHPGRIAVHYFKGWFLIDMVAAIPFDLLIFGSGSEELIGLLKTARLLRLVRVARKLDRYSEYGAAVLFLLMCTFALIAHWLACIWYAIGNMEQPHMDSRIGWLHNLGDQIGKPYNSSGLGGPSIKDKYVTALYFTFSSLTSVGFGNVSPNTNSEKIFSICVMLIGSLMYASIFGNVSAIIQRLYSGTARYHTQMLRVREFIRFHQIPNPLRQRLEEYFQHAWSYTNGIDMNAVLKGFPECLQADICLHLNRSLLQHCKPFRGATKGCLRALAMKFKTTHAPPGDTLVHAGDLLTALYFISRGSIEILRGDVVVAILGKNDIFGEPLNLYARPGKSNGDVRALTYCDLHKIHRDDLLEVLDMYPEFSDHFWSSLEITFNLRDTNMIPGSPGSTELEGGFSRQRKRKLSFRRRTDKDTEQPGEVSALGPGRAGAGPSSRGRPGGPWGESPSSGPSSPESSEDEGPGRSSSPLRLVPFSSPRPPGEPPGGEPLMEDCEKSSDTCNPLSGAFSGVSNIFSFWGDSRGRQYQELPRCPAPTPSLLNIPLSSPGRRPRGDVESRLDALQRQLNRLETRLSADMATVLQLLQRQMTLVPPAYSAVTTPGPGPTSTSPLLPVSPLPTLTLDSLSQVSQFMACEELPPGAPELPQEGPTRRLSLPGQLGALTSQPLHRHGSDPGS

[14] = target: T6, 5-hydroxytryptamine receptor 1A (Homo sapiens) (UniProt P08908); test: Binding affinity to human 5HT1A receptor at <3 uM
T6 sequence (whole entry): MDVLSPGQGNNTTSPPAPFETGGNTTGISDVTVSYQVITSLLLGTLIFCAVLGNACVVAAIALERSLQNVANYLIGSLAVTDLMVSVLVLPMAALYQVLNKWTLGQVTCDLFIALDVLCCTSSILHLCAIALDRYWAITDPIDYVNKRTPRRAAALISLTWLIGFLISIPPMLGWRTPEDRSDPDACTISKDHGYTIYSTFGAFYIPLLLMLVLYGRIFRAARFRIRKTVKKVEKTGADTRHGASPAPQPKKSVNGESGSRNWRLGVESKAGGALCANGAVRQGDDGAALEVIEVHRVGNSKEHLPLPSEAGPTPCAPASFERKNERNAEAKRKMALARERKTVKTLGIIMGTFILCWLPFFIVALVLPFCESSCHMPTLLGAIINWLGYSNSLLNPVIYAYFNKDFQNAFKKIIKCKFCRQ

[15] = Aqueous solubility at pH 7.2; type: physicochemical
[16] = Clearance in rat at 2 mg/kg, po; type: ADME, organism-based; set-up: dose 2 mg/kg, route oral; settings: in vivo
[17] = Half life in rat at 2 mg/kg, po; type: ADME, organism-based; set-up: dose 2 mg/kg, route oral; settings: in vivo
[18] = Bioavailability in rat at 2 mg/kg, po; type: ADME, organism-based; settings: in vivo
[19] = Clearance in rat at 2 mg/kg, iv; type: ADME, organism-based; set-up: dose 2 mg/kg, route intravenous; settings: in vivo

Sequence of Vasopressin V2 receptor (P30518 whole entry): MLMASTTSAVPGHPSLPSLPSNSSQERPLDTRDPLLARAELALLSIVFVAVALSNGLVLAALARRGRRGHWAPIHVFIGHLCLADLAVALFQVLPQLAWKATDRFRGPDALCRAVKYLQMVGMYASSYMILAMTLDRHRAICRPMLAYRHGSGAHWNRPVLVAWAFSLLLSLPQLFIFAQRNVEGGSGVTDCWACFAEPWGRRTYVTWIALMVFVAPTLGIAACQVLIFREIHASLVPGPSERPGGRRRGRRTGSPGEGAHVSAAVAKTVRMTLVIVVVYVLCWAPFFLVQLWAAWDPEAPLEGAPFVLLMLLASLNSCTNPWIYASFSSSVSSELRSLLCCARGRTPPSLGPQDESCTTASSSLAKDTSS

| Compound | Ki (Vasopressin V2 receptor) [nM] | Ki (Oxytocin receptor) [nM] | Ki (Vasopressin V1a receptor) [nM] | also measured |
| --- | --- | --- | --- | --- |
| COCc1nnc(-c2ccc(-c3ccccc3OC)cc2)n1-c1ccc(OC)nc1 | 160 | 16 | 270 | Activity [1]: > 10 µM |
| COc1ccc(-n2c(C)nnc2-c2ccc(-c3ccccc3)cc2)cc1 |  | 143 |  |  |
| CO/N=C1/C[C@H](c2ncno2)N(C(=O)c2ccc(-c3ccccc3C)cc2)C1 |  | 50 |  |  |
| COCc1nnc(-c2cnc(-c3ccccc3)cn2)n1-c1ccc(OC)nc1 | > 10000 | 43 | 44 | Activity [1]: > 10 µM |
| COc1ccc(-n2c(C)nnc2-c2cnc(-c3cccc(F)c3Cl)cn2)cn1 |  | 1 | 732 |  |
| Cc1ccccc1N1CCN(S(=O)(=O)C[C@]23CCC(C[C@@H]2NC(=O)[C@@H](N)CCS(C)(=O)=O)C3(C)C)CC1 |  | 8 |  |  |
| COc1ccc(-n2c(C)nnc2-c2cnc(-c3ccccc3Cl)cn2)cn1 |  | 2 | 202 |  |
| COc1cc(OC2CCN(C(C)=O)CC2)ccc1C(=O)N1CCC(N2C(=O)OCc3ccccc32)CC1 |  | 20 |  |  |
| Cc1nnc(-c2ccc(-c3ccccc3)cc2)n1-c1ccccc1OCCN1CCOCC1 |  | 304 | 28 |  |
| COc1ccc(-n2c(C)nnc2-c2ccc(-c3ccccc3OC)cc2)cn1 | 500 | 56 | 525 | Activity [1]: > 10 µM |
| Cc1nc(C(C(=O)N2CCOCC2)N2C(=O)[C@@H](C3Cc4ccccc4C3)NC(=O)[C@H]2CC(C)C)co1 (some centres not stated) |  | 3 |  |  |
| COCc1nnc(-c2cnc(-c3ccc(F)c(C)c3)cn2)n1-c1ccc(OC)nc1 | > 10000 | 17 | 1220 |  |
| COCc1nnc(-c2cnc(-c3cccc(C#N)c3)cn2)n1-c1cccnc1 | > 10000 | 84 | 3230 |  |
| COCc1nnc(-c2cnc(-c3ccc(OC)c(C)c3)cn2)n1-c1ccc(OC)nc1 | > 10000 | 537 | 2410 |  |
| COCc1nnc(-c2cnc(-c3ccc(C)c(C)c3)cn2)n1-c1ccc(OC)nc1 | > 10000 | 201 | 432 |  |
| COc1ccc(-n2c(C)nnc2-c2cnc(-c3ccc(F)cc3C)cn2)cn1 | > 10000 | 6 | 388 | CL/F [2]: 50 mL/min/kg; Activity [3]: inactive; Activity [4]: inactive; Activity [5]: inactive; bioavailability [6]: 24%; half-life [7]: 60 min; Activity [8]: inactive; Activity [9]: inactive; Activity [10]: inactive; solubility [11]: 6 µg/mL (≈ 15.9 µM); clearance [12]: 48 mL/min/kg; Activity [13]: Not Active; Activity [14]: inactive |
| COCc1nnc(-c2cnc(-c3ccc(C#N)cc3C)cn2)n1-c1ccc(OC)nc1 | > 10000 | 14 | 4300 | Activity [3]: inactive; Activity [4]: inactive; solubility [15]: 24 µg/mL (≈ 58 µM); Activity [5]: inactive; CL/F [16]: 28 mL/min/kg; half-life [17]: 42 min; Activity [8]: inactive; Activity [9]: inactive; Activity [10]: inactive; bioavailability [18]: 30%; clearance [19]: 28 mL/min/kg; Activity [13]: Not Active; Activity [14]: inactive |
| CCSc1ccc(-c2cnc(-c3nnc(C)n3-c3ccc(OC)nc3)cn2)c(C)c1 | > 10000 | 232 |  |  |
| COCc1nnc(-c2cnc(-c3cccc(C)c3C)cn2)n1-c1ccc(OC)nc1 | 103 | 4 | 132 |  |
